Laboratory results: publication PMC5784132, “Investigation of 20S-hydroxyvitamin D3 analogs and their 1α-OH derivatives as potent vitamin D receptor agonists with anti-inflammatory activities” (Scientific Reports, 2018)

Columns and labels:
IFNγ production = test: IFNγ inhibition assay in anti-CD3 activated splenocytes; settings: for activity at 0.1 µM: Mus musculus, Splenocyte, 72 h, read-out: IFNγ (ratio ± SD)
CYP24A1 gene expression = test: RT-PCR analysis of CYP24A1 expression in HaCaT cells; type: cell-based; settings: Homo sapiens, 100 nM, 24 h treatment, read-out: relative mRNA level for CYP24A1 versus vehicle control
Procedure: Figure 7 20S(OH)D3 analogs upregulate the expression of CYP24A1 encoding the vitamin D catabolic enzyme, CYP24A1, with varying efficiencies. […] The mRNA was isolated and the RT-PCR was performed using specific primers for the CYP24A1 gene (see Methods). Data are presented as mean ± SE (n = 3). *p < 0.05, **p < 0.01 and ***p < 0.001 compared with the control.
HaCaT cells were purchased from Thermo Fisher Scientific (Waltham, MA, USA) and were cultured as for the VDRE reporter assay. The RNA from HaCaT keratinocytes treated with secosteroids or from DMSO controls was isolated using the Absolutely RNA Miniprep Kit (Stratagene, La Jolla, CA, USA). Reverse transcription (100 ng RNA/reaction) was performed with the Transcriptor First Strand cDNA Synthesis Kit (Roche Inc., Mannheim, Germany). Real-time PCR was performed using cDNA diluted 10-fold in sterile water and a SYBR Green PCR Master Mix. The primers for both forward and reverse strands for CYP24A1 were designed based on the mouse and rat sequences using Primer Quest software ([…], San Jose, CA, USA). Reactions (in triplicate) were performed at 50 °C for 2 min, 95 °C for 10 min and then 40 cycles of 95 °C for 15 s, 60 °C for 30 s and 72 °C for 30 s. Data were collected and analyzed on a Roche Light Cycler 480. The amount of the final amplified product for each gene was compared and normalized to the amount of β-actin product as a housekeeping gene using a comparative Ct method.

rat CYP24A1 = target: T1, rat CYP24A1 (Rattus norvegicus, UniProt Q09128); test: Kinetics of metabolism of analogs in phospholipid vesicles by rat CYP24A1; type: in vitro ADME; settings: for Km: rat CYP24A1 0.14 µM, phospholipid vesicles, 1 min incubation, ± SE from curve fit
T1 construct: made in house; host or cells: E. coli
T1 sequence (Q09128 36-514): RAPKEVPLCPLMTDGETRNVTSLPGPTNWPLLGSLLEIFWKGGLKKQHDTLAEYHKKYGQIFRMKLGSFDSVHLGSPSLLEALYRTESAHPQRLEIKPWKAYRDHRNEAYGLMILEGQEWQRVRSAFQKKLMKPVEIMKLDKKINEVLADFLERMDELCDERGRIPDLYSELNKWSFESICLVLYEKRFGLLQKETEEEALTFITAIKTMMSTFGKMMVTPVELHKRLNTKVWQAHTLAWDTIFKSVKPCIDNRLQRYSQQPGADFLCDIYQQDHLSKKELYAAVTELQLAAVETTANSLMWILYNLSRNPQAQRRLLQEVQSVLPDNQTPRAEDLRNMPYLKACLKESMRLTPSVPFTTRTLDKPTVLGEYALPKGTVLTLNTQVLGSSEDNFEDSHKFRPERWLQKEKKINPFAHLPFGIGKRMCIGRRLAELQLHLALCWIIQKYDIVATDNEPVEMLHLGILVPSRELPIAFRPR
Procedure: An incubation time of 1 min was chosen to obtain the initial rate based on the time courses (Fig. 6) and previous studies[28],[29].
To test metabolism of each analog, they were incorporated into phospholipid vesicles made from dioleoyl phosphatidylcholine and cardiolipin by sonication, as before[24],[28]. […] Samples from incubations with CYP24A1 were extracted with dichloromethane and analysed by HPLC using a 25 cm Grace Alltima C18 column, as before[27],[28]. […] For the more polar 33, the acetonitrile gradient was 30% to 100% acetonitrile for 30 min then 100% acetonitrile for 20 min, at 0.5 mL/min.

Km, fold higher than for 4 (rat CYP24A1; rat CYP24A1) | catalytic efficiency, fold lower than for 13 (rat CYP24A1; rat CYP24A1) [fold] | Km (rat CYP24A1) [mmol/mol PL] | Km, fold lower than that for 20S(OH)D3 (rat CYP24A1; rat CYP24A1) | kcat/Km, higher than for the next best analog, 4 (rat CYP24A1; rat CYP24A1) [%] | SMILES | decrease of IFNγ production level (IFNγ production; 100 nM) [%] | activity at 0.1 µM (IFNγ production) [%] | fold induction at 0.1 µM (CYP24A1 gene expression)
over 17 fold | 13 | 34.8 ± 9.4 | – | – | C=C1CC[C@H](O)C/C1=C/C=C1\CCC[C@@]2(C)[C@H]1CC[C@@H]2[C@@](C)(O)CCCC(C)C [20S(OH)D3, 20S-hydroxyvitamin D3] | 48 | 51.7 ± 4.6 | 4.4
– | – | 7.9 ± 1.5 | 3–4 fold | 72 | C=C1CC[C@H](O)C/C1=C/C=C1\CCC[C@@]2(C)[C@H]1CC[C@@H]2[C@@](C)(O)CCOC(C)C [compound 13] | – | 82.4 ± 3.1 | 0.8
